Results published in ChEMBL document CHEMBL1201862, “PubChem BioAssay data set” (2004).
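Step 1: Grow cells in 96-well plates. Step 2: Expose to compound for 48 hours at 5 concentrations. Step 3: Interpolate endpoints linearly; if unreached, use highest concentration. GI50 marks 50% less growth.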 Activity calls are given as the source filed them. No stated cut-off is given here; in the data, active = GI50 up to about 1.1 µM and inactive = higher.

What was measured:
Assay in all cases: NCI-60 cell line screen, 48 h
[1] = test system: A498
[2] = test system: HOP-62
[3] = test system: DU-145
[4] = test system: NCI-H226
[5] = test system: OVCAR-4
[6] = test system: NCI/ADR-RES
[7] = test system: SF-539
[8] = test system: EKVX
[9] = test system: RPMI-8226
[10] = test system: NCI-H460
[11] = test system: SNB-75
[12] = test system: KM12
[13] = test system: 786-0
[14] = test system: HCT-15
[15] = test system: UO-31
[16] = test system: PC-3
[17] = test system: UACC-62
[18] = test system: BT-549
[19] = test system: K562
[20] = test system: LOX IMVI
[21] = test system: MOLT-4
[22] = test system: MDA-N
[23] = test system: NCI-H522
[24] = test system: A549
[25] = test system: HT-29
[26] = test system: RXF 393
[27] = test system: CCRF-CEM
[28] = test system: SK-OV-3
[29] = test system: MDA-MB-435
[30] = test system: OVCAR-8
[31] = test system: U-251
[32] = test system: SNB-19
[33] = test system: T47D
[34] = test system: CAKI-1
[35] = test system: Hs-578T
[36] = test system: SW-620
[37] = test system: HOP-92
[38] = test system: ACHN
[39] = test system: IGROV-1
[40] = test system: SK-MEL-2
[41] = test system: HCC 2998
[42] = test system: SF-268
[43] = test system: SR
[44] = test system: TK-10
[45] = test system: SN12C
[46] = test system: MDA-MB-231
[47] = test system: OVCAR-3
[48] = test system: MCF7
[49] = test system: OVCAR-5
[50] = test system: UACC-257
[51] = test system: COLO 205
[52] = test system: M14
[53] = test system: HCT-116
[54] = test system: Malme-3M
[55] = test system: SK-MEL-5
[56] = test system: HL-60
[57] = test system: SK-MEL-28
[58] = test system: SF-295
[59] = test system: NCI-H23

Measured: GI50

Cc1cc(S(=O)(=O)/N=C(\NN)Nc2ccc(Cl)cc2)c(S)cc1Cl
inactive: [1] 17.1 µM | [2] 10.8 µM | [3] 4.35 µM | [4] 16 µM | [5] 13.2 µM | [6] 2.71 µM | [7] 14.1 µM | [8] 5.16 µM | [9] 12.3 µM | [10] 4.46 µM | [11] 6.49 µM | [12] 2.85 µM | [13] 6.34 µM | [15] 5.58 µM | [16] 21.2 µM | [17] 1.5 µM | [18] 10.8 µM | [19] 2.13 µM | [20] 13.9 µM | [21] 2.75 µM | [22] 8.87 µM | [23] 16 µM | [24] 11 µM | [25] 16.1 µM | [26] 28.6 µM | [27] 3.28 µM | [28] 23 µM | [29] 8.02 µM | [30] 12.4 µM | [31] 6.87 µM | [32] 11.5 µM | [33] 3.4 µM | [34] 19.9 µM | [35] 1.17 µM | [36] 11.1 µM | [37] 34.4 µM | [38] 3.06 µM | [39] 3.54 µM | [40] 19.2 µM | [41] 11.2 µM | [42] 15.6 µM | [43] 3.76 µM | [44] 21.3 µM | [45] 22.8 µM | [46] 20.4 µM | [47] 12.4 µM | [48] 14.8 µM | [49] 1.81 µM | [50] 19.3 µM | [51] 13.4 µM | [52] 8.65 µM | [53] 3.03 µM | [54] 16.9 µM | [55] 4.94 µM | [56] 6.27 µM | [57] 21.6 µM
1140 nM: [14]

CC(=O)OCC1OC(NC(=S)Nn2c(=O)[nH]c3ccccc3c2=O)C(OC(C)=O)C(OC(C)=O)C1OC(C)=O (centres undefined)
> 100000 nM: [14]
inactive: [1] > 100 µM | [2] > 100 µM | [3] > 100 µM | [4] > 100 µM | [6] > 100 µM | [7] > 100 µM | [8] > 100 µM | [9] > 100 µM | [10] > 100 µM | [11] > 100 µM | [12] > 100 µM | [13] > 100 µM | [15] > 100 µM | [16] > 100 µM | [17] > 100 µM | [18] > 100 µM | [20] > 100 µM | [21] > 100 µM | [22] > 100 µM | [23] > 100 µM | [24] > 100 µM | [25] > 100 µM | [26] > 100 µM | [58] > 100 µM | [27] 49.5 µM | [28] > 100 µM | [29] > 100 µM | [30] > 100 µM | [31] > 100 µM | [32] > 100 µM | [33] > 100 µM | [34] > 100 µM | [35] > 100 µM | [36] > 100 µM | [37] > 100 µM | [38] > 100 µM | [39] > 100 µM | [59] > 100 µM | [40] > 100 µM | [41] > 100 µM | [42] > 100 µM | [43] 64.9 µM | [45] > 100 µM | [46] > 100 µM | [47] > 100 µM | [48] > 100 µM | [49] > 100 µM | [50] > 100 µM | [51] > 100 µM | [52] > 100 µM | [53] > 100 µM | [54] > 100 µM | [55] > 100 µM | [56] 57.4 µM | [57] > 100 µM

C/C(=N/NC(=S)Nc1ccccc1Cl)c1ccccn1
< 16.5 nM: [14]
inactive: [1] 1.46 µM | [11] 8.73 µM | [18] 4.39 µM | [26] 1.41 µM | [32] 1.79 µM | [35] 8.53 µM | [40] 1.98 µM | [41] 2.98 µM | [57] 4.06 µM
active: [2] < 0.0415 µM | [3] 1.06 µM | [4] < 0.0401 µM | [5] 0.249 µM | [6] 0.0914 µM | [7] 1.11 µM | [8] 0.098 µM | [9] < 0.0149 µM | [10] 0.0382 µM | [12] 0.0705 µM | [13] 0.0889 µM | [15] 0.583 µM | [16] < 0.0143 µM | [17] 0.173 µM | [19] < 0.01 µM | [20] 0.01 µM | [21] < 0.0109 µM | [22] 0.452 µM | [23] 1.11 µM | [24] 0.0582 µM | [25] < 0.01 µM | [58] 0.0986 µM | [27] < 0.01 µM | [28] 0.043 µM | [29] 0.665 µM | [30] 0.0206 µM | [31] 0.0418 µM | [33] < 0.0371 µM | [34] 0.0675 µM | [36] < 0.0168 µM | [37] 1.03 µM | [38] 0.0402 µM | [39] < 0.0137 µM | [59] < 0.0161 µM | [42] 0.0843 µM | [43] < 0.0139 µM | [44] 0.113 µM | [45] 0.129 µM | [46] < 0.0164 µM | [47] 0.0136 µM | [48] < 0.0119 µM | [49] < 0.0211 µM | [50] < 0.0151 µM | [51] < 0.0162 µM | [52] < 0.0211 µM | [53] < 0.0129 µM | [54] 0.429 µM | [55] 0.0753 µM | [56] < 0.0113 µM

Clc1ccc(Cc2nc3cc(Cl)c(Cl)cc3n2CC2CCCN3CCCCC23)cc1Cl (centres undefined)
active: [15] 0.335 µM | [28] 1.11 µM
inactive: [1] 8.17 µM | [2] 9.14 µM | [3] 4.79 µM | [4] 7.16 µM | [5] 3.4 µM | [6] 4.46 µM | [7] 1.98 µM | [8] 3.28 µM | [9] 4.13 µM | [10] 3.1 µM | [11] 4.53 µM | [12] 2.19 µM | [13] 2.99 µM | [16] 4.12 µM | [17] 2.28 µM | [18] 8.43 µM | [19] 3.26 µM | [20] 2.44 µM | [21] 4.34 µM | [22] 4.79 µM | [23] 1.74 µM | [24] 4.93 µM | [25] 2.43 µM | [26] 7.53 µM | [58] 3.37 µM | [29] 3.83 µM | [30] 6.32 µM | [31] 3.86 µM | [32] 2.9 µM | [33] 7.29 µM | [34] 3.46 µM | [35] 3.4 µM | [36] 1.48 µM | [37] 5.38 µM | [38] 4.47 µM | [39] 3.89 µM | [40] 6.34 µM | [41] 1.65 µM | [42] 3.32 µM | [43] 2.78 µM | [44] 6.05 µM | [45] 4.13 µM | [46] 3.27 µM | [47] 16 µM | [48] 2.38 µM | [49] 3.13 µM | [50] 2.88 µM | [51] 1.94 µM | [52] 2.01 µM | [53] 3.04 µM | [54] 1.79 µM | [55] 1.85 µM | [56] 2.5 µM | [57] 2.99 µM
4760 nM: [14]
